From patent US10125356B2, “Enzymatic methods and enzymes” (Givaudan SA, priority 2007, dated 2018)
Peptide text beside a SMILES is read from it. * marks the point of attachment. Cbz = O=C(OCc1ccccc1)*

Assays:
[1] = test system: C. sp. Ax 20 extract; test: Cleavage of conjugates by Corynebacterium sp. Ax20 cellular extract, release of 3-sulfanyl-3-methyl-hexanol by gas chromatography; assay type: biochemical; details: conjugate 1 mM incubated with C. sp. Ax 20 extract for 24 h
Experimental: The test compounds (cys-conjugate (1 mM) or cys-gly-conjugate (1 mM)) were incubated also with the wild-type strain Corynebacterium sp. Ax20 extract naturally containing the peptidase of SEQ ID NO:2. Corynebacterium sp. Ax20 cellular extract was prepared as described in example 1. The resulting extract was diluted to the same volume as the original culture has had when adjusted to an optical density of OD 4. The substrate was incubated with the extract for 24 h.
(§1) Cleavage was measured by gas chromatography to determine the release of 3-sulfanyl-3-methyl-hexanol in mM.

[2] = molecular target: T1, β-lyase (Corynebacterium striatum, UniProt Q64HC5); test: Cleavage of conjugates by β-lyase, release of 3-sulfanyl-3-methyl-hexanol by gas chromatography; assay type: biochemical, Corynebacterium sp. Ax20; details: conjugate 1 mM incubated with β-lyase
T1 construct: made in house
T1 sequence (Q64HC5 whole entry): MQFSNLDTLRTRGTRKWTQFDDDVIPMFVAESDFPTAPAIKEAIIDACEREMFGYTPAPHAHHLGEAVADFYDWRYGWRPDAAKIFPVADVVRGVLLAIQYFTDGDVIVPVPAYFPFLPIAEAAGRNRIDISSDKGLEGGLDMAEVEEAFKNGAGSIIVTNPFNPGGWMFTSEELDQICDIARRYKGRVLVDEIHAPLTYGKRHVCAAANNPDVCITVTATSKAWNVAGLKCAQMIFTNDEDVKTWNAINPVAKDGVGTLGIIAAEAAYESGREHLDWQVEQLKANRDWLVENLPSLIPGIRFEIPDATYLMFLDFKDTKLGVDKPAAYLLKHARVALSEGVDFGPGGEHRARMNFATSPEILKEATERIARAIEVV
Experimental: The test compounds (Cys-conjugate (1 mM) or Cys-Gly-conjugate (1 mM)) were incubated with β-lyase.
as §1

[3] = test system: Ax20 peptidase; test: Substrate specificity of recombinant Ax20 peptidase, cleavage by thin layer chromatography; assay type: biochemical, Corynebacterium sp. Ax20; parameters: key: (+++) indicating >80% cleavage of a 1 mM solution by 0.1 μg/ml peptidase during an incubation for 1 h; (++) indicates complete cleavage of a 1 mM solution by 1 μg/ml peptidase during an incubation for 1 h; (+) indicates partial cleavage (20-80%) of a 1 mM solution by 1 μg/ml peptidase during an incubation for 1 h; (−) indicating the absence of any cleavage; details: 1 mM solution, 0.1 or 1 μg/ml peptidase, incubation 1 h
Experimental: The recombinant Ax20 peptidase formed as described in example 3 (affinity column purified tagged enzyme) was incubated with different compounds, in particular potential candidate dipeptide substrates, to characterize the substrate specificity and to identify substrates useful for screening assays (for example to screen for modulators including inhibitors).
The table below lists the tested compounds (mostly dipeptides indicated by their short names, e.g. ala-gly for an alanine-glycine dipeptide) and indicates whether they are cleaved by the peptidase. Z indicates a benzyloxy-carbonyl protecting group at the N-terminus of the peptide.
Cleavage was determined by thin layer chromatography.
Amounts are qualitative with (+++) indicating >80% cleavage of a 1 mM solution by 0.1 μg/ml peptidase during an incubation for 1 h; (++) indicates complete cleavage of a 1 mM solution by 1 μg/ml peptidase during an incubation for 1 h and (+) indicates partial cleavage (20-80%) of a 1 mM solution by 1 μg/ml peptidase during an incubation for 1 h and (−) indicating the absence of any cleavage.

[4] = test system: C. jeikeium K411 extract; test: Inhibition of malodourant release by C. jeikeium K411 extract; assay type: biochemical, Corynebacterium jeikeium K411; details: o-phenantrolin 0.5 mM, Complete at manufacturer's use concentration, 10 min pre-incubation
Experimental: (§2) Extracts from C. sp. Ax20 and C. jeikeium K411 were formed as described in example 1.
(§3) O-phenantrolin (0.5 mM), a metallopeptidase inhibitor, or Complete™ (EDTA free), a protease inhibitor mix (Roche biochemicals, Switzerland; use concentration as indicated by the manufacturer) that contains broad specificity serine and […] inhibitors but no metallopeptidase inhibitors were added to batches of the extracts and incubated for 10 min.
(§4) The cys-conjugate or the cys-gly-conjugate (1 mM), both precursors for the malodourant 3-sulfanyl-3-methyl-hexanol, were then added to the C. sp. Ax20 or C. jeikeium K411 extracts containing the different inhibitors.
(§5) The release of the malodourant 3-sulfanyl-3-methyl-hexanol, which indicates enzyme activity in the Corynebacteria cell lysates, was measured as described in examples 12 and 13.
(§6) The results (in % inhibition of 3-sulfanyl-3-methyl-hexanol release compared to reactions without added inhibitors) are indicated in the table below.

[5] = test system: C. sp. Ax20 extract; test: Inhibition of malodourant release by C. sp. Ax20 extract; assay type: biochemical, Corynebacterium sp. Ax20; details: o-phenantrolin 0.5 mM, Complete at manufacturer's use concentration, 10 min pre-incubation
Experimental: as §2, §3, §4, §5, §6

[6] = molecular target: T2, AMRE enzyme (Nα-acyl-glutamine-aminoacylase) (Corynebacterium striatum, UniProt Q8GGD4); test: Inhibition of AMRE-catalysed release of free NH2 groups from N-Lauroyl-glutamine; assay type: biochemical
T2 construct: made in house
T2 sequence (Q8GGD4 whole entry): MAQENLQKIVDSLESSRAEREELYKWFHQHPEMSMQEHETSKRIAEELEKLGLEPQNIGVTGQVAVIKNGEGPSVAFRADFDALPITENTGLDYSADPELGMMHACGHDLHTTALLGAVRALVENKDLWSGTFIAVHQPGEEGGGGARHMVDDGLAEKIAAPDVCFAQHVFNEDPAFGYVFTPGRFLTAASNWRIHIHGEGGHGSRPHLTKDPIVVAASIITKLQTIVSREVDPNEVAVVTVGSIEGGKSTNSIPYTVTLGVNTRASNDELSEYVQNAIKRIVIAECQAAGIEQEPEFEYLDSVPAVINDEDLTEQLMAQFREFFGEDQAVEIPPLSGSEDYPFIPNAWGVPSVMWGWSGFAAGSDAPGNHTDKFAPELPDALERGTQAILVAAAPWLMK
Experimental: In an additional step to example 7 or 8, the identified peptidase inhibitors were tested for their modulating effect against the AMRE enzyme (Nα-acyl-glutamine-aminoacylase described by Natsch in EP1258531), thereby identifying dual inhibitors of both metallopeptidase enzymes involved in malodour release.
AMRE is formed as described in example 6 of EP1258531.

[7] = test system: Ax20 peptidase (SEQ ID NO: 2); test: Inhibition of Pro-Gly cleavage by recombinant Ax20 peptidase, fluorescamine detection of free NH2; assay type: biochemical, Corynebacterium sp. Ax20; details: Pro-Gly 1 mM, 1 μg/ml peptidase, 60 min at 37° C.
Experimental: Cleavage of the peptide substrate Pro-Gly by addition of the recombinant Ax20 peptidase (SEQ ID NO: 2) released a unique free NH2 group which can be derivatized by fluorescamine (Fluram™, Fluka, Buchs, Switzerland). Test compounds (for example, potential enzyme inhibitors) are dissolved in dimethylsulfoxid (DMSO), for example in individual wells of a microtiter plate. […] Controls are run in parallel and subjected to the same procedure. A positive control contains DMSO without inhibitor, a negative control contains no substrate.

[8] = test system: peptidase (SEQ ID NO:2) and β-lyase; test: Inhibition of free SH release from S-benzyl-cys-gly by peptidase plus β-lyase, monobromobimane detection; assay type: biochemical, Corynebacterium sp. Ax20; details: peptidase 0.1 μg/ml, β-lyase 5 μg/ml
Experimental: For the results shown below (S-benzyl)-cys-gly was used.
Instead of derivatising the free NH2 group of the conjugate by adding Fluram, the free SH group released from the conjugate by the subsequent action of both enzymes was derivatised by adding monobromobimane (Fluka, Buchs, Switzerland) dissolved in a NaCO3 buffer (100 mM, pH 8.8) to give a final concentration of 0.5 mM to 1 mM. After 5 to 15 min incubation the fluorescence was measured on a Flex-station (Molecular devices, Sunnyvale, Calif., USA) with an excitation wavelength of 385 nm and an emission wavelength of 480 nm.

Row | SMILES | Cleavage [3] | Inhibition of release of free NH2 groups from N-Lauroyl-glutamine (catalyzed by AMRE) ([6]; test compound 15.625 microM) | Inhibition of release of free NH2 groups from N-Lauroyl-glutamine (catalyzed by AMRE) ([6]; test compound 31.25 microM) | Inhibition of release of free NH2 groups from N-Lauroyl-glutamine (catalyzed by AMRE) ([6]; test compound 62.5 microM) | Inhibition of release of free NH2 groups from Pro-Gly ([7]; test compound 15.625 microM) | Inhibition of release of free NH2 groups from Pro-Gly ([7]; test compound 31.25 microM) | Inhibition of release of free NH2 groups from Pro-Gly ([7]; test compound 62.5 microM) | Inhibition of release of free SH groups from S-benzyl-cys-gly in presence of peptidase and β-lyase ([8]; test compound 15.625 microM) | Inhibition of release of free SH groups from S-benzyl-cys-gly in presence of peptidase and β-lyase ([8]; test compound 31.25 microM) | Inhibition of release of free SH groups from S-benzyl-cys-gly in presence of peptidase and β-lyase ([8]; test compound 62.5 microM) | other results
1 | CCCC(C)(CCO)SC[C@H](N)C(=O)O (some centres unmarked) [cys-conjugate] |  |  |  |  |  |  |  |  |  |  | release of 3-sulfanyl-3-methyl-hexanol from the conjugate [1]: 0.31 mM; release of 3-sulfanyl-3-methyl-hexanol from the conjugate [2]: 0.59 mM
2 | CC(N)C(=O)NCC(=O)O (centres unmarked) [Ala-Gly] | ++ |  |  |  |  |  |  |  |  |  | 
3 | c1cnc2c(c1)ccc1cccnc12 [o-Phenantrolin] |  | 42.4 % inhibition | 81.8 % inhibition | 96.1 % inhibition | 83.9 % inhibition | 95.5 % inhibition | 100.0 % inhibition | 54.2 % inhibition | 79.9 % inhibition | 93.1 % inhibition | % inhibition of 3-sulfanyl-3-methyl-hexanol release compared to reactions without added inhibitors ([4]; substrate Cys-Gly-conj. 1 mM): 93 % inhibition; % inhibition of 3-sulfanyl-3-methyl-hexanol release compared to reactions without added inhibitors ([4]; substrate Cys-conj. 1 mM): 13 % inhibition; % inhibition of 3-sulfanyl-3-methyl-hexanol release compared to reactions without added inhibitors ([5]; substrate Cys-Gly-conj. 1 mM): 100 % inhibition; % inhibition of 3-sulfanyl-3-methyl-hexanol release compared to reactions without added inhibitors ([5]; substrate Cys-conj. 1 mM): 0 % inhibition
4 | O=C(O)CNCCNCC(=O)O [ethylendiamine-N,N′-diacetic acid] |  | 7.4 % inhibition | 7.2 % inhibition | 42.7 % inhibition | 65.7 % inhibition | 81.0 % inhibition | 93.9 % inhibition | 50.2 % inhibition | 73.1 % inhibition | 90.4 % inhibition | 
5 | O=C(O)CN(CCN(CC(=O)O)CC(=O)O)CC(=O)O [Ethylenediaminetetraacetic acid] |  | 62.4 % inhibition | 59.8 % inhibition | 61.6 % inhibition | 101.0 % inhibition | 102.6 % inhibition | 101.4 % inhibition | 99.3 % inhibition | 96.5 % inhibition | 99.0 % inhibition | 
6 | O=C(O)CNC(=O)CNC(=O)OCc1ccccc1 [Z-Gly-Gly] (Cbz-Gly-Gly-OH) | − |  |  |  |  |  |  |  |  |  | 
7 | C[C@H](NC(=O)OCc1ccccc1)C(=O)O [Z-Ala] | − |  |  |  |  |  |  |  |  |  | 
8 | NC(CSCc1ccccc1)C(=O)NCC(=O)O (centres unmarked) [H-Cys(Bzl)-Gly-OH, S-benzyl-Cys-Gly] | +++ ((+++) indicating >80% cleavage of a 1 mM solution by 0.1 μg/ml peptidase during an incubation for 1 h) |  |  |  |  |  |  |  |  |  | 
9 | CC(N)C(=O)NC(C)C(=O)O (centres unmarked) [Ala-Ala] | ++ |  |  |  |  |  |  |  |  |  | 
10 | O=C(O)c1cccc(C(=O)O)n1 [pyridine-2,6-dicarboxylic acid] |  | 28.8 % inhibition | 52.0 % inhibition | 72.2 % inhibition | 72.4 % inhibition | 92.4 % inhibition | 100.9 % inhibition | 49.6 % inhibition | 83.4 % inhibition | 95.9 % inhibition | 
11 | O=C(O)CNC(=O)OCc1ccccc1 [Z-Gly] | − |  |  |  |  |  |  |  |  |  | 
12 | NCC(=O)NCC(=O)O [Gly-Gly] (H-Gly-Gly-OH) | + ((+) indicates partial cleavage (20-80%) of a 1 mM solution by 1 μg/ml peptidase during an incubation for 1 h) |  |  |  |  |  |  |  |  |  | 
13 | O=C(O)CSCCSCC(=O)O [2,2′-Ethylendithio-diacetic acid] |  | 22.4 % inhibition | 12.7 % inhibition | 19.6 % inhibition | 0.1 % inhibition | −2.6 % inhibition | −5.3 % inhibition | −10.1 % inhibition | −9.1 % inhibition | −8.7 % inhibition | 
14 | O=C(O)CNC(=O)C1CCCN1 (centres unmarked) [Pro-Gly] | + ((+) indicates partial cleavage (20-80%) of a 1 mM solution by 1 μg/ml peptidase during an incubation for 1 h) |  |  |  |  |  |  |  |  |  | 
